CC(=O)c1c(C)c([N+](=O)[O-])c(C(C)(C)C)c([N+](=O)[O-])c1C
solubility (mole fraction)
Conditions | 278.15 K | 283.15 K | 288.15 K | 293.15 K | 298.15 K | 303.15 K | 308.15 K | 313.15 K | 318.15 K
in DMAc | 0.113 | 0.129 | 0.147 | 0.165 | 0.185 | 0.206 | 0.228 | 0.252 | 0.278
in DMF | 0.0732 | 0.0856 | 0.0993 | 0.115 | 0.131 | 0.149 | 0.169 | 0.191 | 0.215
in THF | 0.148 | 0.165 | 0.183 | 0.202 | 0.221 | 0.243 | 0.266 | 0.288 | 0.313
in acetonitrile | 0.0141 | 0.0174 | 0.0213 | 0.0259 | 0.0314 | 0.0379 | 0.0455 | 0.0545 | 0.0644
in cyclohexane | 0.00275 | 0.00348 | 0.00439 | 0.00547 | 0.0068 | 0.00853 | 0.0104 | 0.0127 | 0.0153
in ethanol | 0.00201 | 0.00251 | 0.00304 | 0.00364 | 0.00435 | 0.00521 | 0.00622 | 0.00743 | 0.00869
in ethyl acetate | 0.065 | 0.0744 | 0.0846 | 0.0959 | 0.108 | 0.121 | 0.136 | 0.151 | 0.168
in isopropanol | 0.00159 | 0.002 | 0.00259 | 0.00332 | 0.00414 | 0.00521 | 0.00651 | 0.008 | 0.00982
in methanol | 0.00127 | 0.00155 | 0.00188 | 0.00227 | 0.00272 | 0.00324 | 0.00385 | 0.00455 | 0.00533
in n-butanol | 0.00299 | 0.0037 | 0.00455 | 0.00557 | 0.00679 | 0.00823 | 0.00993 | 0.0119 | 0.0141
in n-heptane | 0.00184 | 0.00228 | 0.00281 | 0.00344 | 0.00419 | 0.00508 | 0.00613 | 0.00737 | 0.00878
in n-hexane | 0.00164 | 0.00202 | 0.00248 | 0.00302 | 0.00365 | 0.0044 | 0.00527 | 0.00629 | 0.00744

Reference: BigSolDB 2.1
